# Laboratory results published in patent US7501512B2, “Chemical compounds” (SmithKline Beecham Corporation, priority 2003, dated 2009).
# Legend:
# hYAK3 = target: T1, hYAK3 (Homo sapiens, UniProt O43781); experiment: YAK3 scintillation proximity assay using Ser164 of myelin basic protein as phosphoacceptor; assay type: biochemical; conditions: purified GST-hYak3-His6, 0.001 mM ATP, 4 μM Ser164 peptide; read-out: pIC50 values (converted)
# T1 construct: made in house; host or cells: baculovirus expression system in Sf9 cells
# T1 sequence (O43781 124-526): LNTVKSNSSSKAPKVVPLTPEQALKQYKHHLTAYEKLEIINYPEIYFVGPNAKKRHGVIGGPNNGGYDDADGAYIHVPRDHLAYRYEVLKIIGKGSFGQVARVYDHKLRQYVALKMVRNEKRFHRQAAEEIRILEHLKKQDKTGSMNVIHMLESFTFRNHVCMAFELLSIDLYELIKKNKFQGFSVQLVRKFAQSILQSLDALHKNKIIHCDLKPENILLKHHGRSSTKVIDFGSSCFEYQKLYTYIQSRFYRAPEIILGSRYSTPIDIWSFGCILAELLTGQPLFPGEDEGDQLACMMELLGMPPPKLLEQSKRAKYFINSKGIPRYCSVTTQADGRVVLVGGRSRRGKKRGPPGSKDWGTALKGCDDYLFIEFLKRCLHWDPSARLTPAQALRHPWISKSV
# Experimental: YAK3 Scintillation Proximity Assays Using Ser164 of Myelin Basic Protein as the Phosphoacceptor
# The source of Ser164 substrate peptide The biotinylated Ser164, S164A peptide (Biotinyl-LGGRDSRAGS*PMARR-OH), sequence derived from the C-terminus of bovine myelin basic protein (MBP) with Ser162 substituted as Ala162, was purchased from California Peptide Research Inc. (Napa, Calif.), and its purity was determined by HPLC. Phosphorylation occurs at position 164 (marked S* above). The calculated molecular mass of the peptide was 2166 dalton. Solid sample was dissolved at 10 mM in DMSO, aliquoted, and stored at −20° C. until use.
# hYAK3: Glutathione-S-Transferase (GST)-hYak3-His6 containing amino acid residues 124-526 of human YAK3 (aa 124-526 of SEQ ID NO 2. in U.S. Pat. No. 6,323,318) was purified from baculovirus expression system in Sf9 cells using Glutathione Sepharose 4B column chromatography followed by Ni-NTA-Agarose column chromatography. Purity greater than 65% typically was achieved. Samples, in 50 mM Tris, 150 mM NaCl, 10% glycerol, 0.1% Triton, 250 mM imidazole, 10 mM β-mercapto ethanol, pH 8.0. were stored at −80° C. until use.
# Kinase assay of purified hYAK3: Assays were performed in 96 well (Costar, Catalog No. 3789) or 384 well plates (Costar, Catalog No. 3705). Reaction (in 20, 25, or 40 μl volume) mix contained in final concentrations 25 mM Hepes buffer, pH 7.4; 10 mM MgCl2; 10 mM β-mercapto ethanol; 0.0025% Tween-20; 0.001 mM ATP, 0.1 μCi of [γ-^33P]ATP; purified hYAK3 (7-14 ng/assay; 4 nM final); and 4 μM Ser164 peptide. Compounds, titrated in DMSO, were evaluated at concentrations ranging from 50 μM to 0.5 nM. […] Reactions were incubated for 2 hours at room temperature and were stopped by a 75 ul addition of […] Streptavidin Scintillation Proximity beads (Amersham Pharmacia Biotech, Catalog No. RPNQ 0007) in PBS, pH 7.4, 10 mM EDTA, 0.1% Triton X-100, 1 mM ATP. Under the assay conditions defined above, the Km (apparent) for ATP was determined to be 7.2+/−2.4 μM.
# MAPKAP2 kinase (MK2) = MAPKAP2 kinase (MK2) (Homo sapiens, UniProt P49137); experiment: MAPKAP2 kinase (MK2) enzyme assay; assay type: biochemical; conditions: 1 nM recombinant MK2, 1 μM ATP, 1 μM peptide substrate; read-out: pIC50 values (converted)
# MAPKAP2 kinase (MK2), sequence (P49137 whole entry, species assumed): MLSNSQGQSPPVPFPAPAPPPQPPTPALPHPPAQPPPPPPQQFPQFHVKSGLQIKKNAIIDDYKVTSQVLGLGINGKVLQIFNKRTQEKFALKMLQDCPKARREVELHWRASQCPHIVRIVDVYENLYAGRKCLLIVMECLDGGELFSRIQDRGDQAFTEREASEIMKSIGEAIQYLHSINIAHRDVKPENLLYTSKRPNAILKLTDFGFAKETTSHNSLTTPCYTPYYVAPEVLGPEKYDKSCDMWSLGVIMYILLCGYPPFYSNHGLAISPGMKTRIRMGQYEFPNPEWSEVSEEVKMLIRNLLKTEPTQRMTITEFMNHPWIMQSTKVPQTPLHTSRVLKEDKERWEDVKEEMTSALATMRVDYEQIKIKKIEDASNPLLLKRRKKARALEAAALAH
# Experimental: Compounds are tested for MAPKAP2 kinase (MK2) inhibitory activity in an assay that measures the MK2 catalyzed transfer of the γ-phosphate from ATP to serine/threonine residues of a biotinylated peptide [NH2-K(biotin)-KLNRTLSVA (SynPep Corporation, USA)]. Compounds under analysis are dissolved in DMSO to 1 mM and serially diluted 3-fold with DMSO in 96 or 384-well polypropylene or polystyrene plates for a total of 10-12 different concentrations. One uL of each concentration is transferred to the corresponding well of a 96 or 384-well, white, polystyrene assay plate. Reactions are performed in a final volume of 26 uL. An ATP solution (10 uL) is added to each well, and the reaction is initiated by the addition of a MK2/peptide mix (15 uL). The ATP solution is made in H2O and consists of 2.6 μM nonradioactive ATP (SigmaUltra) and 6.5 uCi/mL [γ-^33P]-ATP (Amersham Pharmacia Biotech). The MK2/peptide mix consists of 86.7 mM HEPES (SigmaUltra), pH 7.5, 8.67 mM MgCl2 (SigmaUltra), 0.0043% Tween 20, 1.73 mM dithiothreitol (added fresh from frozen 1M stock), 1.73 μM peptide, and 1.73 nM purified recombinant MK2. Final concentrations of the assay components are 50 mM HEPES, pH 7.5, 5 mM MgCl2, 0.0025% Tween 20, 1 mM dithiothreitol, 1 μM ATP, 2.5 μCi/mL [γ-^33P]-ATP, 1 μM peptide substrate, and 1 nM MK2. The reaction is allowed to proceed for 40 minutes and is then terminated by the addition of ‘stop solution’ (20 uL), followed by the addition of ‘bead mix’ (50 uL). […] The plates are allowed to sit for approximately 8 hours and then are quantitated using a TopCount NXF™ (Packard). Alternatively, the plates are allowed to sit for at least approximately 1 hour, centrifuged at 900 rpm for 3 minutes, and then quantitated using a TopCount NXT™ (Packard). […] Percent inhibition of MK2 activity is calculated for each compound concentration using Equation [1] […]
# [formula] where Y2 is the baseline percent inhibition, Vmax is the net maximum percent inhibition (baseline subtracted), and K is the IC50. […] The results for each compound are recorded as pIC50, calculated using Equation [3]. pIC50=−log10([…]) (3)
IC50 (hYAK3) [nM],IC50 (MAPKAP2 kinase (MK2)) [nM],SMILES
10.2 to 100,,"COc1ccc2c(c1)CCn1c-2cc(Nc2c(OC)cccc2OC)nc1=O [Ia, 2-(2,6-Dimethoxy-phenylamino)-9-methoxy-6,7-dihydro-pyrimido[6,1-a]isoquinolin-4-one]"
102 to 1000,,"COc1ccc2c(c1)CCn1c-2cc(Nc2ccccc2Br)nc1=O [Ie, 2-(2-Bromo-phenylamino)-9-methoxy-6,7-dihydro-pyrimido[6,1-a]isoquinolin-4-one]"
,102 to 1000,"COc1ccc2c(c1)CCn1c-2cc(Nc2cccc(S(N)(=O)=O)c2)nc1=O [If, 3-(9-Methoxy-4-oxo-6,7-dihydro-4H-pyrimido[6,1-a]isoquinolin-2-ylamino)-benzenesulfonamide]"
,10 to 100,"COc1ccc2c(c1)CCn1c-2cc(NCCN2CCCC2)nc1=O [Iv, 9-Methoxy-2-(2-pyrrolidin-1-yl-ethylamino)-6,7-dihydro-pyrimido[6,1-a]isoquinolin-4-one]"
10.2 to 100,,"COc1ccc2c(c1)CCn1c-2cc(NCCN(C)C)nc1=O [Iw, 2-(2-Dimethylamino-ethylamino)-9-methoxy-6,7-dihydro-pyrimido[6,1-a]isoquinolin-4-one]"
,10 to 100,"COCCN(C)c1cc2n(c(=O)n1)CCc1cc(OC)ccc1-2 [Iy, 9-Methoxy-2-[(2-methoxy-ethyl)-methyl-amino]-6,7-dihydro-pyrimido[6,1-a]isoquinolin-4-one]"
102 to 1000,,"COc1ccc(CNc2cc3n(c(=O)n2)CCc2cc(OC)ccc2-3)cc1 [Iz, 9-Methoxy-2-(4-methoxy-benzylamino)-6,7-dihydro-pyrimido[6,1-a]isoquinolin-4-one]"
